Source: article PMC7127349 (Bioorganic & Medicinal Chemistry Letters, 2018)

B1: Urtica dioica agglutinin (protein, UniProt P11218 24-372, looked up)
Lectin/endochitinase 1: QRCGSQGGGGTCPALWCCSIWGWCGDSEPYCGRTCENKCWSGERSDHRCGAAVGNPPCGQDRCCSVHGWCGGGNDYCSGSKCQYRCSSSVRGPRVALSGNSTANSIGNVVVTEPLFDQMFSHRKDCPSQGFYSYHSFLVAAESFPAFGTIGDVATRKREVAAFLAHISQATSGERSDVENPHAWGLCHINTTTVTENDFCTSSDWPCAAGKKYSPRGPIQLTHNFNYGLAGQAIGEDLIQNPDLVEKDPIISFKTALWFWMSQHDNKPSCHDIVLNANSAANRIPNKGVIGNIISRAFGHDDFAVRSSSIGFYKRYCDMLGVSYGHDLKYWFDNTPSSEFQRIQMRVAA

system: human coronavirus (229E); type: cell-based; settings: not given

With `Fc1cccc(Cn2nnc3c2CCN(c2ccc(C(F)(F)F)cc2)C3)c1` [Compound 18i] as the molecule, how does the “activity against human coronavirus (229E) lower than the activity observed with UDA” value read?
Its value is “approximately 50 fold”.

For `CCOC(=O)C1(Cc2ccc(F)cc2)CN(c2ccccc2)Cc2nnn(Cc3ccc(Cl)c(Cl)c3)c21` (stereo not drawn) [Compound 14q], which “activity against human coronavirus (229E) lower than the activity observed with UDA” value is on record?
The value was “approximately 50 fold”.

With `COc1ccc(CCn2nnc3c2CCN(c2ccc(C(F)(F)F)cc2)C3)cc1` [Compound 18f] as the molecule, how does the “activity against human coronavirus (229E) lower than the activity observed with UDA” value read?
The value was “approximately 50 fold”.

With `CCOC(=O)C1(Cc2ccccc2)CN(c2ccccc2)Cc2nnn(Cc3ccc(F)cc3)c21` (stereo not drawn) [Compound 14d] as the molecule, how does the “activity against human coronavirus (229E) lower than the activity observed with UDA” value read?
The value was “approximately 50 fold”.

How did the “activity against human coronavirus (229E) lower than the activity observed with UDA” value turn out when `CCOC(=O)C1(Cc2ccccc2)CN(c2ccccc2)Cc2nnn(CCc3cc4ccccc4[nH]3)c21` (stereo not drawn) [Compound 14n] was run?
The value was “approximately 50 fold”.

same assay, conditions: read-out: EC50 Human Coronavirus (229E)

How did the EC50 turn out when B1 was run?
Its EC50 is 200 nM.
